According to patent publication US20240270821A1, “GIP/GLP1/GCG TRI-RECEPTOR AGONISTS AND USES THEREOF” (priority 2023, published 2024):
Starred links: 1 amine or outer side, 2 acyl side, 3 side chain; linkers in the order of their positions; H or OH if unused. Non-standard residues stand in square brackets, D forms with d. Residues, ends and D or L forms follow the SMILES beside them. Groups on a side chain read outwards from the residue. *: point of attachment. C20 diacid = O=C(O)CCCCCCCCCCCCCCCCCCC(=O)*; C18 diacid = O=C(O)CCCCCCCCCCCCCCCCC(=O)*; αMePhe(2-F) = C[C@](N)(Cc1ccccc1F)C(=O)O; γGlu = O=C(O)[C@H](CCC(=O)[*:2])N[*:1]; αMeY = C[C@](N)(Cc1ccc(O)cc1)C(=O)O; αMeF = C[C@](N)(Cc1ccccc1)C(=O)O; αMeL = CC(C)C[C@](C)(N)C(=O)O; αMeS = C[C@](N)(CO)C(=O)O; Orn = NCCC[C@H](N)C(=O)O; AEEA = NCCOCCOCC(=O)O; Aib = CC(C)(N)C(=O)O

Experiments:
Type in all cases: cell-based
hGLP-1R [1] = biological target: T1, hGLP-1R (Homo sapiens, UniProt P43220); experiment: Functional cAMP activity in the presence of 1% HSA; conditions: read-out: cAMP Rel EC50, hGLP-1R
T1 sequence (P43220 24-463): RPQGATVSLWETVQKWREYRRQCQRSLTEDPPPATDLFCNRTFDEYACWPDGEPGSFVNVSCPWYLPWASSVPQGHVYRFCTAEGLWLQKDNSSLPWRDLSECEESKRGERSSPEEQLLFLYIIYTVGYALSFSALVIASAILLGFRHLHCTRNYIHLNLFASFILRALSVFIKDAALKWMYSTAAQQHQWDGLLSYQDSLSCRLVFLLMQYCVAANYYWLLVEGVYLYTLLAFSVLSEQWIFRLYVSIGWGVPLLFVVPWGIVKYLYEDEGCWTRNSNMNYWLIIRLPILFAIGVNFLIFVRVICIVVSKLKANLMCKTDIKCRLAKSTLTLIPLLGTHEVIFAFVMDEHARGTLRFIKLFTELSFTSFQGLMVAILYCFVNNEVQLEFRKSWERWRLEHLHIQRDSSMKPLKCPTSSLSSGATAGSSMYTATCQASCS

hGLP-1R [2] = biological target: T1, hGLP-1R; experiment: Functional cAMP activation in the presence of 0.1% casein (no HSA); conditions: in the presence of 0.1% casein (no HSA); geometric mean; read-out: Relative cAMP EC50, hGLP-1R;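 as to Relative cAMP EC50, hGIPR: intracellular cAMP rise after 30 min at 37 °C read by HTRF against a standard curve, scaled between buffer alone (0%) and top control ligand concentration (100%), four-parameter fit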;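 as to Relative cAMP EC50, hGLP-1R: intracellular cAMP rise after 30 min at 37 °C read by HTRF, normalized between buffer only (0%) and maximal control ligand (100%), four-parameter variable-slope fit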
hGIPR [3] = biological target: T2, hGIPR (Homo sapiens, UniProt P48546); experiment: Functional cAMP activity in the presence of 1% HSA; conditions: read-out: cAMP Rel EC50, hGIPR
T2 sequence (P48546 22-466): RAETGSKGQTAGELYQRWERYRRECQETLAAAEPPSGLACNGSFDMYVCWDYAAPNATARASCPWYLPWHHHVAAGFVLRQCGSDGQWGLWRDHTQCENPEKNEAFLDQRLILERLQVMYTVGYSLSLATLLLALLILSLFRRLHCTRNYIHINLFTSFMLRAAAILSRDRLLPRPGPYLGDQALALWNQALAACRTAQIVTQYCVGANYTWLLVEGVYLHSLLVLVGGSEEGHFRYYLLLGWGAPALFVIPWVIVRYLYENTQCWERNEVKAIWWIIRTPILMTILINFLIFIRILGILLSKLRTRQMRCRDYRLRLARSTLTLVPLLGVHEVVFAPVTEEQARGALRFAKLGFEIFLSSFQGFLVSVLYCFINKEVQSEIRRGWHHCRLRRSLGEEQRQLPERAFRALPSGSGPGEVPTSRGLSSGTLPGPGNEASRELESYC

hGcgR = hGcgR (Homo sapiens, UniProt P47871); experiment: Functional cAMP activation in the presence of 0.1% casein (no HSA); conditions: in the presence of 0.1% casein (no HSA); geometric mean; read-out: Relative cAMP EC50, hGcgR;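 also: intracellular cAMP rise after 30 min at 37 °C, read by HTRF against a cAMP standard curve, scaled from buffer only (0%) to maximal control ligand response (100%)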
Chain of hGcgR (P47871 26-477): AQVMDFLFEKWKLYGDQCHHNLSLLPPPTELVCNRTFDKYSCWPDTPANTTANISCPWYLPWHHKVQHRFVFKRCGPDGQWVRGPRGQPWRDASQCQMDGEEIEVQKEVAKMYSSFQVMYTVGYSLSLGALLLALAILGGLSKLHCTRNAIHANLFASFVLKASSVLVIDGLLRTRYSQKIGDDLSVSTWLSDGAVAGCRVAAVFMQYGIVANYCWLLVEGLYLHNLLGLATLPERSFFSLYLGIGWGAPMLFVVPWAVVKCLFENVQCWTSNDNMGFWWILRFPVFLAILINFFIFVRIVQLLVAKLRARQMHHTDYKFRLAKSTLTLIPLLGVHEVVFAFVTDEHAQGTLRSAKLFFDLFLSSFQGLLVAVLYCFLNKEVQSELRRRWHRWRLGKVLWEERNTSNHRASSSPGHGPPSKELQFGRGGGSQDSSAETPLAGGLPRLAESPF

hGIPR [4] = biological target: T2, hGIPR; experiment: as above; conditions: in the presence of 0.1% casein (no HSA); geometric mean; read-out: Relative cAMP EC50, hGIPR
human GcgR = human GcgR (Homo sapiens, UniProt P47871); experiment: Functional cAMP activity in the presence of 1% HSA; conditions: read-out: cAMP Rel EC50, hGcgR
Chain of human GcgR (P47871 26-477): as above

Q: With `CC[C@H](C)[C@H](NC(=O)[C@H](CC(C)C)NC(=O)[C@H](Cc1ccc(O)cc1)NC(=O)[C@H](CCC(=O)O)NC(=O)[C@@H](NC(=O)[C@H](Cc1ccccc1)NC(=O)[C@H](C)NC(=O)C(C)(C)NC(=O)[C@H](CCC(N)=O)NC(=O)[C@H](C)NC(=O)[C@H](CCCCNC(=O)COCCOCCNC(=O)COCCOCCNC(=O)CC[C@H](NC(=O)CCCCCCCCCCCCCCCCCCC(=O)O)C(=O)O)NC(=O)[C@H](CCCCN)NC(=O)[C@H](CC(=O)O)NC(=O)[C@H](CC(C)C)NC(=O)[C@](C)(CC(C)C)NC(=O)[C@@H](NC(=O)[C@](C)(CO)NC(=O)[C@H](Cc1ccc(O)cc1)NC(=O)[C@H](CC(=O)O)NC(=O)[C@H](CO)NC(=O)[C@@H](NC(=O)[C@H](Cc1ccccc1)NC(=O)[C@@H](NC(=O)CNC(=O)[C@H](CCC(N)=O)NC(=O)C(C)(C)NC(=O)[C@@H](N)Cc1ccc(O)cc1)[C@@H](C)O)[C@@H](C)O)[C@@H](C)CC)[C@@H](C)CC)C(=O)N[C@@H](CCC(=O)O)C(=O)NCC(=O)NCC(=O)N1CCC[C@H]1C(=O)N[C@@H](CO)C(=O)N[C@@H](CO)C(=O)NCC(=O)N[C@@H](C)C(=O)N1CCC[C@H]1C(=O)N1CCC[C@H]1C(=O)N1CCC[C@H]1C(=O)N[C@@H](CO)C(N)=O` [Example 382] (H-Y[Aib]QGTFTSDY[αMeS]I[αMeL]LDKK([AEEA-AEEA-γGlu-C20 diacid])AQ[Aib]AFIEYLIEGGPSSGAPPPS-NH2) as the compound, how does the EC50 (hGLP-1R [1]) read?
A: 61.5 nM

Q: What about the EC50 (hGLP-1R [2]) of the same compound?
A: 0.291 nM

Q: What about the EC50 (hGIPR [3]) of the same compound?
A: 17.7 nM

Q: What about the EC50 (hGcgR) of the same compound?
A: 3.72 nM

Q: What about the EC50 (hGIPR [4]) of the same compound?
A: 0.0368 nM

Q: What about the EC50 (human GcgR) of the same compound?
A: 1050 nM

Q: How did the EC50 (hGLP-1R [1]) turn out when `CC[C@H](C)[C@H](NC(=O)[C@H](Cc1ccccc1)NC(=O)[C@H](C)NC(=O)C(C)(C)NC(=O)[C@H](CCC(N)=O)NC(=O)[C@H](C)NC(=O)[C@H](CCCCNC(=O)COCCOCCNC(=O)COCCOCCNC(=O)CC[C@H](NC(=O)CCCCCCCCCCCCCCCCCCC(=O)O)C(=O)O)NC(=O)[C@H](CCCCN)NC(=O)[C@H](CC(=O)O)NC(=O)[C@H](CC(C)C)NC(=O)[C@H](CC(C)C)NC(=O)[C@@H](NC(=O)[C@H](CO)NC(=O)[C@H](Cc1ccc(O)cc1)NC(=O)[C@H](CC(=O)O)NC(=O)[C@H](CO)NC(=O)[C@@H](NC(=O)[C@](C)(Cc1ccccc1F)NC(=O)[C@@H](NC(=O)CNC(=O)[C@H](CCC(N)=O)NC(=O)C(C)(C)NC(=O)[C@@H](N)Cc1ccc(O)cc1)[C@@H](C)O)[C@@H](C)O)[C@@H](C)CC)C(=O)N[C@@H](CCC(=O)O)C(=O)N[C@@H](Cc1ccc(O)cc1)C(=O)N[C@@H](CC(C)C)C(=O)N[C@@H](CC(C)C)C(=O)N[C@@H](CCC(=O)O)C(=O)NCC(=O)NCC(=O)N1CCC[C@H]1C(=O)N[C@@H](CO)C(=O)N[C@@H](CO)C(=O)NCC(=O)N[C@@H](C)C(=O)N1CCC[C@H]1C(=O)N1CCC[C@H]1C(=O)N1CCC[C@H]1C(=O)N[C@@H](CO)C(N)=O` [Example 385] was run?
A: 86.1 nM

Q: And the EC50 (hGLP-1R [2])?
A: 0.235 nM

Q: What about the EC50 (hGIPR [3]) of the same compound?
A: 4.03 nM

Q: And the EC50 (hGcgR)?
A: 1 nM

Q: What about the EC50 (hGIPR [4]) of the same compound?
A: 0.0141 nM

Q: What about the EC50 (human GcgR) of the same compound?
A: 700 nM

Q: What does the source list for `CC[C@H](C)[C@H](NC(=O)[C@H](Cc1ccccc1)NC(=O)[C@H](C)NC(=O)C(C)(C)NC(=O)[C@H](CCC(N)=O)NC(=O)[C@H](C)NC(=O)[C@H](CCCCNC(=O)COCCOCCNC(=O)COCCOCCNC(=O)CC[C@H](NC(=O)CCCCCCCCCCCCCCCCCCC(=O)O)C(=O)O)NC(=O)[C@H](CCCCN)NC(=O)[C@H](CC(=O)O)NC(=O)[C@H](CC(C)C)NC(=O)[C@H](CC(C)C)NC(=O)[C@@H](NC(=O)[C@H](CO)NC(=O)[C@H](Cc1ccc(O)cc1)NC(=O)[C@H](CC(=O)O)NC(=O)[C@H](CO)NC(=O)[C@@H](NC(=O)[C@](C)(Cc1ccccc1F)NC(=O)[C@@H](NC(=O)CNC(=O)[C@H](CCC(N)=O)NC(=O)C(C)(C)NC(=O)[C@@H](N)Cc1ccc(O)cc1)[C@@H](C)O)[C@@H](C)O)[C@@H](C)CC)C(=O)N[C@@H](CCC(=O)O)C(=O)N[C@@H](Cc1ccc(O)cc1)C(=O)N[C@@H](CC(C)C)C(=O)N[C@@H](CC(C)C)C(=O)N[C@@H](CCC(=O)O)C(=O)NCC(=O)NCC(=O)N1CCC[C@H]1C(=O)N[C@@H](CO)C(=O)N[C@@H](CO)C(=O)NCC(=O)N[C@@H](C)C(=O)N1CCC[C@H]1C(=O)N1CCC[C@H]1C(=O)N1CCC[C@H]1C(=O)N[C@@H](CCC(=O)O)C(N)=O` [Example 386] (H-Y[Aib]QGT[αMePhe(2-F)]TSDYSILLDKK([AEEA-AEEA-γGlu-C20 diacid])AQ[Aib]AFIEYLLEGGPSSGAPPPE-NH2)?
A: EC50 (hGLP-1R [1]): 98.6 nM; EC50 (hGLP-1R [2]): 0.278 nM; EC50 (hGIPR [3]): 5.62 nM; EC50 (hGcgR): 1.7 nM; EC50 (hGIPR [4]): 0.0156 nM; EC50 (human GcgR): 734 nM

Q: For `CC[C@H](C)[C@H](NC(=O)[C@H](Cc1ccccc1)NC(=O)[C@H](CCCN)NC(=O)C(C)(C)NC(=O)[C@H](CCC(N)=O)NC(=O)[C@H](C)NC(=O)[C@H](CCCCNC(=O)COCCOCCNC(=O)CC[C@H](NC(=O)CCCCCCCCCCCCCCCCC(=O)O)C(=O)O)NC(=O)[C@H](CCCN)NC(=O)[C@H](CC(=O)O)NC(=O)[C@H](CC(C)C)NC(=O)[C@](C)(CC(C)C)NC(=O)[C@H](CO)NC(=O)[C@](C)(CO)NC(=O)[C@H](Cc1ccc(O)cc1)NC(=O)[C@H](CC(=O)O)NC(=O)[C@H](CO)NC(=O)[C@@H](NC(=O)[C@](C)(Cc1ccccc1)NC(=O)[C@@H](NC(=O)CNC(=O)[C@H](CCC(N)=O)NC(=O)C(C)(C)NC(=O)[C@@H](N)Cc1ccc(O)cc1)[C@@H](C)O)[C@@H](C)O)C(=O)N[C@H](CCC(=O)O)C(=O)N[C@@](C)(Cc1ccc(O)cc1)C(=O)N[C@@H](CC(C)C)C(=O)N[C@@H](CC(C)C)C(=O)N[C@@H](CCC(=O)O)C(=O)NCC(=O)NCC(=O)N1CCC[C@H]1C(=O)N[C@@H](CO)C(=O)N[C@@H](CO)C(=O)NCC(=O)N[C@@H](CCC(=O)O)C(=O)N1CCC[C@H]1C(=O)N1CCC[C@H]1C(=O)N1CCC[C@H]1C(=O)N[C@@H](CCC(=O)O)C(N)=O` [Example 389] (H-Y[Aib]QGT[αMeF]TSDY[αMeS]S[αMeL]LD[Orn]K([AEEA-γGlu-C18 diacid])AQ[Aib][Orn]FI[dE][αMeY]LLEGGPSSGEPPPE-NH2), which EC50 (hGLP-1R [1]) is on record?
A: 18.9 nM

Q: And the EC50 (hGLP-1R [2])?
A: 0.134 nM

Q: What about the EC50 (hGIPR [3]) of the same compound?
A: 18.3 nM

Q: What about the EC50 (hGcgR) of the same compound?
A: 4.03 nM

Q: What about the EC50 (hGIPR [4]) of the same compound?
A: 0.0354 nM

Q: And the EC50 (human GcgR)?
A: 889 nM

Q: `CC[C@H](C)[C@H](NC(=O)[C@H](Cc1ccccc1)NC(=O)[C@H](CCCN)NC(=O)C(C)(C)NC(=O)[C@H](CCC(N)=O)NC(=O)[C@H](C)NC(=O)[C@H](CCCCNC(=O)COCCOCCNC(=O)CC[C@H](NC(=O)CCCCCCCCCCCCCCCCC(=O)O)C(=O)O)NC(=O)[C@H](CCCN)NC(=O)[C@H](CC(=O)O)NC(=O)[C@H](CC(C)C)NC(=O)[C@H](CC(C)C)NC(=O)[C@H](CO)NC(=O)[C@](C)(CO)NC(=O)[C@H](Cc1ccc(O)cc1)NC(=O)[C@H](CC(=O)O)NC(=O)[C@H](CO)NC(=O)[C@@H](NC(=O)[C@](C)(Cc1ccccc1)NC(=O)[C@@H](NC(=O)CNC(=O)[C@H](CCC(N)=O)NC(=O)C(C)(C)NC(=O)[C@@H](N)Cc1ccc(O)cc1)[C@@H](C)O)[C@@H](C)O)C(=O)N[C@H](CCC(=O)O)C(=O)N[C@@](C)(Cc1ccc(O)cc1)C(=O)N[C@@H](CC(C)C)C(=O)N[C@@H](CC(C)C)C(=O)N[C@@H](CCC(=O)O)C(=O)NCC(=O)NCC(=O)N1CCC[C@H]1C(=O)N[C@@H](CO)C(=O)N[C@@H](CO)C(=O)NCC(=O)N[C@@H](CCC(=O)O)C(=O)N1CCC[C@H]1C(=O)N1CCC[C@H]1C(=O)N1CCC[C@H]1C(=O)N[C@@H](CCC(=O)O)C(N)=O` [Example 390] (H-Y[Aib]QGT[αMeF]TSDY[αMeS]SLLD[Orn]K([AEEA-γGlu-C18 diacid])AQ[Aib][Orn]FI[dE][αMeY]LLEGGPSSGEPPPE-NH2) was tested. Which EC50 (hGLP-1R [1]) did it give?
A: 19.6 nM

Q: And the EC50 (hGLP-1R [2])?
A: 0.134 nM

Q: What about the EC50 (hGIPR [3]) of the same compound?
A: 37.8 nM

Q: What about the EC50 (hGcgR) of the same compound?
A: 3.08 nM

Q: And the EC50 (hGIPR [4])?
A: 0.122 nM

Q: And the EC50 (human GcgR)?
A: 549 nM
